Among the data in PubChem BioAssay (NCI) are GI50 and TGI values, retold here.

Test systems include HOP-62 NSCLC; HOP-92 NSCLC; MCF7 breast; A549 NSCLC; ACHN renal; T-47D breast; RPMI-8226 leukemia; OVCAR-4 ovarian; SF-295 CNS; PC-3 prostate.
Test in all cases: NCI tumour cell line growth inhibition, 48 h

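A five-concentration, 48-hour dose response in 96-well plates underlies each endpoint, interpolated linearly between surrounding concentrations. GI50 is the concentration that inhibits growth by half. TGI denotes the concentration required for complete inhibition of growth.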 Some results are limits rather than exact numbers.

As to `N#Cc1c(NC(=O)CN2CCOCC2)sc2c1CCCC2`, the GI50 in the assay on HOP-62 NSCLC, in the assay on HOP-92 NSCLC, with MCF7 breast, with A549 NSCLC, in the assay on ACHN renal and with T-47D breast was more than 25 µM in each case. For the same compound, the GI50 in the assay with RPMI-8226 leukemia, with OVCAR-4 ovarian, in the assay on SF-295 CNS and in the assay with PC-3 prostate was more than 25 µM throughout. The TGI in the assay on HOP-62 NSCLC, in the assay with HOP-92 NSCLC, in the assay with MCF7 breast, in the assay on A549 NSCLC, with ACHN renal and in the assay on T-47D breast was more than 25 µM in each case. The TGI with RPMI-8226 leukemia, in the assay on OVCAR-4 ovarian, with SF-295 CNS and in the assay with PC-3 prostate was more than 25 µM in each case.

On to `N#Cc1c(-c2ccccc2)cc(-c2ccccc2)n(CCCCC(=O)NO)c1=O`, for which the GI50 with HOP-62 NSCLC is 2.24 µM; in the assay with HOP-92 NSCLC, 2.23 µM; in the assay on MCF7 breast it was 1.79 µM; in the assay with A549 NSCLC, 3.29 µM; in the assay on ACHN renal, 2.32 µM; in the assay on T-47D breast, 1.93 µM. Further, the GI50 was 1.57 µM in the assay with RPMI-8226 leukemia, 2.74 µM in the assay on OVCAR-4 ovarian, 2.13 µM in the assay with SF-295 CNS and 2.72 µM with PC-3 prostate. The TGI was determined as 7.35 µM in the assay with HOP-62 NSCLC; 7.57 µM in the assay with HOP-92 NSCLC; 11 µM in the assay with MCF7 breast; 15.7 µM with A549 NSCLC; 7.91 µM in the assay with ACHN renal; 7.99 µM with T-47D breast. The TGI in the assay with RPMI-8226 leukemia is 4.61 µM; in the assay with OVCAR-4 ovarian it was 16.5 µM; with SF-295 CNS it was 4.56 µM; in the assay on PC-3 prostate, 15.9 µM.

For the compound `Nc1ccccc1NC(=O)c1ccc(CN2CCC/C(=C\c3cccc(Cl)c3)C2=O)cc1`, the GI50 in the assay on HOP-62 NSCLC was 0.388 µM; in the assay on HOP-92 NSCLC it was 1.76 µM; with MCF7 breast, 0.0332 µM; in the assay on A549 NSCLC, 1.45 µM; in the assay on ACHN renal, 0.129 µM; in the assay on T-47D breast, 3.34 µM. Further, the GI50 with RPMI-8226 leukemia was 0.921 µM; in the assay on OVCAR-4 ovarian, 1.49 µM; in the assay on SF-295 CNS it was 1.05 µM; with PC-3 prostate it was 0.463 µM. Besides, the TGI is more than 100 µM in the assay with HOP-62 NSCLC; 16.2 µM in the assay with HOP-92 NSCLC; 26.6 µM in the assay with MCF7 breast; 75.7 µM in the assay with A549 NSCLC; 6.32 µM in the assay with ACHN renal; 56.6 µM with T-47D breast. The TGI in the assay with RPMI-8226 leukemia was 4.58 µM; in the assay with OVCAR-4 ovarian, more than 100 µM; in the assay with SF-295 CNS, 15.2 µM; in the assay on PC-3 prostate, 14.1 µM.

Regarding `Oc1cc(O)c2c(=S)cc(-c3ccc(Cl)cc3)oc2c1`, the GI50 is 2.03 µM with HOP-62 NSCLC; 1.62 µM with HOP-92 NSCLC; 0.111 µM in the assay with MCF7 breast; 6.58 µM in the assay on A549 NSCLC; 2.61 µM in the assay on ACHN renal; 0.0304 µM in the assay with T-47D breast. Besides, the GI50 with RPMI-8226 leukemia is 2.82 µM; in the assay on OVCAR-4 ovarian, 0.379 µM; with SF-295 CNS, 5.67 µM; in the assay with PC-3 prostate, 2.84 µM. Further, the TGI in the assay on HOP-62 NSCLC was 11.2 µM; in the assay with HOP-92 NSCLC, 5.11 µM; with MCF7 breast, 11.4 µM; in the assay with A549 NSCLC it was 36.8 µM; with ACHN renal, 11.1 µM; in the assay on T-47D breast it was 0.547 µM. Further, the TGI in the assay with RPMI-8226 leukemia is 9.9 µM; in the assay with OVCAR-4 ovarian it was more than 31.8 µM; in the assay on SF-295 CNS, 22.9 µM; with PC-3 prostate, 12.3 µM.

Turning to `CCOC(=O)C1=C(C)NC(=O)NC1c1coc2cc(C)cc(C)c2c1=O` (stereo not drawn), the TGI in the assay with HOP-62 NSCLC, in the assay with HOP-92 NSCLC, with MCF7 breast, in the assay on A549 NSCLC, with ACHN renal and in the assay on T-47D breast was more than 100 µM in each case. The TGI in the assay on RPMI-8226 leukemia, with OVCAR-4 ovarian, in the assay on SF-295 CNS and in the assay on PC-3 prostate was more than 100 µM each time.

As for `CCOC(=O)c1c(C)n2c(=O)cc(C)c3c(OC(C)=O)c(OC(C)=O)cc1c32`, the GI50 is 7.05 µM with HOP-62 NSCLC; 4.78 µM with HOP-92 NSCLC; 3.27 µM in the assay on MCF7 breast; 5.86 µM in the assay with A549 NSCLC; 4.89 µM in the assay with ACHN renal; 4.08 µM with T-47D breast. The GI50 was 2.75 µM in the assay on RPMI-8226 leukemia, 3.29 µM with OVCAR-4 ovarian, 5.2 µM in the assay with SF-295 CNS and 5.65 µM in the assay on PC-3 prostate. Moreover, the TGI was 31.5 µM with HOP-62 NSCLC; 41.5 µM in the assay with HOP-92 NSCLC; 14 µM in the assay on MCF7 breast; 52.3 µM in the assay with A549 NSCLC; more than 71.5 µM in the assay on ACHN renal; more than 40.9 µM in the assay with T-47D breast. Besides, the TGI is 8.33 µM in the assay on RPMI-8226 leukemia, more than 33.7 µM with OVCAR-4 ovarian, 45.2 µM in the assay with SF-295 CNS and more than 49.7 µM with PC-3 prostate.

Turning to `COc1cc(C2CC(c3cc(C)ccc3C)=NN2c2ccc(S(=O)(=O)NC(=O)NCc3ccccc3)cc2)cc(OC)c1OC` (stereo not drawn), the GI50 is 4.3 µM in the assay with HOP-62 NSCLC; 1.96 µM in the assay on HOP-92 NSCLC; 2.58 µM in the assay on MCF7 breast; 3.31 µM with A549 NSCLC; 3.47 µM in the assay with ACHN renal; 4.19 µM in the assay on T-47D breast. Also, the values for the GI50 in the assay with RPMI-8226 leukemia, in the assay with OVCAR-4 ovarian and in the assay with PC-3 prostate were 2.8 µM, 3.28 µM and 2.54 µM, respectively. The TGI stood at 37.1 µM with HOP-62 NSCLC; 7.47 µM with HOP-92 NSCLC; 9.56 µM with MCF7 breast; 14.4 µM with A549 NSCLC; 13.2 µM in the assay with ACHN renal; 30.1 µM with T-47D breast. The values for the TGI in the assay on RPMI-8226 leukemia, in the assay with OVCAR-4 ovarian and in the assay on PC-3 prostate were 9.11 µM, 39.6 µM and 12.3 µM, respectively.
